From article PMC6441019, “Prospective discovery of small molecule enhancers of an E3 ligase-substrate interaction” (Nature Communications, 2019)

Key:
[1] = molecular target: T1, Ser33/S37A β-catenin peptide binding to β-TrCP (Homo sapiens, UniProt P35222+Q9Y297, S37A); experiment: TR-FRET peptide binding assay, unphosphorylated Ser33/S37A peptide
T1 construct: titrating BODIPY-FL-labeled β-catenin peptides (residues 17-48) against 300 pM β-TrCP; 6xHis-SMT3 (N, cleaved yes); made in house; host or cells: E. coli (co-expressed with BirA)
T1 sequence (Q9Y297 1-569 isoform Q9Y297-2, stated change not applied): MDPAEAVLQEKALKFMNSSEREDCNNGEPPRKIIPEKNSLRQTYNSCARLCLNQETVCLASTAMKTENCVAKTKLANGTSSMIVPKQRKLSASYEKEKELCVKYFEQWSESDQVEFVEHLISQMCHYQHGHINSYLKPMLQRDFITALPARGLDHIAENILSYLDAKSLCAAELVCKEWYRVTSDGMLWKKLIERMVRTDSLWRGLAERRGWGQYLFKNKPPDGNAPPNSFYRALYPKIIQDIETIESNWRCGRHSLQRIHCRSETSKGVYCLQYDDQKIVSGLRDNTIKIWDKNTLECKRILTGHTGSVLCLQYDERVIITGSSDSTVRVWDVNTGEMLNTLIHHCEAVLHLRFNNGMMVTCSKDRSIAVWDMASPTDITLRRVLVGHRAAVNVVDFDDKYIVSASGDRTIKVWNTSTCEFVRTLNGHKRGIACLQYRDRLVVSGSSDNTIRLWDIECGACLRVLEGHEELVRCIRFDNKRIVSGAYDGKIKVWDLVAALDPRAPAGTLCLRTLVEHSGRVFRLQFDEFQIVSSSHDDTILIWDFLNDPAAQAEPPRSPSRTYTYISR
T1 sequence (P63208 whole entry partner, the tested form may be a part): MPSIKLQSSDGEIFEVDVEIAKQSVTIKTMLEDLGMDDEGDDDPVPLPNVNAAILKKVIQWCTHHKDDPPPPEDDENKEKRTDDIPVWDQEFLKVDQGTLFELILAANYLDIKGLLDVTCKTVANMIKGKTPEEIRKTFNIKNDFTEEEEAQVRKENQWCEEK
T1 sequence (P35222 17-48 S37A limits assumed): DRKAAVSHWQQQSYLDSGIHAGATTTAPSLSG
Procedure: (§1) Compounds were incubated in a 20 μl reaction volume with 300 pM biotinylated β-TrCP/Skp1 preincubated with 1.2 nM terbium-coupled streptavidin (Cisbio) and BODIPY-FL labeled β-catenin peptides (see figure legends for peptide details) in a white 384-well microplate (Perkin Elmer ProxiPlate), using a PBS buffer containing 0.01% Triton X-100 and 2 mM DTT with 2% final DMSO. […] Following 1-h incubation, plates were read for TR-FRET signal after excitation at 320 nm and read at 520 and 620 nm using an EnVision plate reader (Perkin Elmer). TR-FRET signal was calculated using a 520/620 nm ratio. Binding and enhancement data were fit to a standard Hill equation (Y = Bmin + (Bmax − Bmin)(X^h)/(X^h + EC50^h)) in Prism (GraphPad). Errors are standard error of the fit.

[2] = molecular target: T2, S33E/S37A β-catenin peptide binding to β-TrCP (Homo sapiens, UniProt P35222+Q9Y297, S33E/S37A); experiment: TR-FRET binding enhancement assay, S33E/S37A peptide; conditions: 1% binding saturation
T2 construct: titrating BODIPY-FL-labeled β-catenin peptides (residues 17-48) against 300 pM β-TrCP; 6xHis-SMT3 (N, cleaved yes); made in house; host or cells: E. coli (co-expressed with BirA)
T2 sequence (Q9Y297 1-569 isoform Q9Y297-2, stated change not applied): as the sequence (Q9Y297 1-569 isoform Q9Y297-2, stated change not applied) above
T2 sequence (P63208 whole entry partner, the tested form may be a part): as the sequence (P63208 whole entry partner, the tested form may be a part) above
T2 sequence (P35222 17-48 S33E/S37A limits assumed): as the sequence (P35222 17-48 S37A limits assumed) above, with S17E counted along it
Procedure: as §1

[3] = molecular target: T3, pSer33/S37A β-catenin peptide ubiquitylation by SCFβ-TrCP (Homo sapiens, UniProt P35222+Q9Y297, S37A); experiment: In vitro ubiquitylation of pSer33/S37A β-catenin peptide; assay type: biochemical; conditions: forms long ubiquitin chains
T3 construct: fluorescently-labeled β-catenin peptide (residues 17–60; as indicated) was ubiquitylated; 6xHis-SMT3 (N, cleaved yes); made in house; host or cells: E. coli (β-TrCP1/Skp1); E. coli or SF9 (Cul1-Rbx1)
T3 sequence (Q9Y297 1-569 isoform Q9Y297-2, stated change not applied): as the sequence (Q9Y297 1-569 isoform Q9Y297-2, stated change not applied) above
T3 sequence (P63208 whole entry partner, the tested form may be a part): as the sequence (P63208 whole entry partner, the tested form may be a part) above
T3 sequence (Q13616 whole entry partner, the tested form may be a part): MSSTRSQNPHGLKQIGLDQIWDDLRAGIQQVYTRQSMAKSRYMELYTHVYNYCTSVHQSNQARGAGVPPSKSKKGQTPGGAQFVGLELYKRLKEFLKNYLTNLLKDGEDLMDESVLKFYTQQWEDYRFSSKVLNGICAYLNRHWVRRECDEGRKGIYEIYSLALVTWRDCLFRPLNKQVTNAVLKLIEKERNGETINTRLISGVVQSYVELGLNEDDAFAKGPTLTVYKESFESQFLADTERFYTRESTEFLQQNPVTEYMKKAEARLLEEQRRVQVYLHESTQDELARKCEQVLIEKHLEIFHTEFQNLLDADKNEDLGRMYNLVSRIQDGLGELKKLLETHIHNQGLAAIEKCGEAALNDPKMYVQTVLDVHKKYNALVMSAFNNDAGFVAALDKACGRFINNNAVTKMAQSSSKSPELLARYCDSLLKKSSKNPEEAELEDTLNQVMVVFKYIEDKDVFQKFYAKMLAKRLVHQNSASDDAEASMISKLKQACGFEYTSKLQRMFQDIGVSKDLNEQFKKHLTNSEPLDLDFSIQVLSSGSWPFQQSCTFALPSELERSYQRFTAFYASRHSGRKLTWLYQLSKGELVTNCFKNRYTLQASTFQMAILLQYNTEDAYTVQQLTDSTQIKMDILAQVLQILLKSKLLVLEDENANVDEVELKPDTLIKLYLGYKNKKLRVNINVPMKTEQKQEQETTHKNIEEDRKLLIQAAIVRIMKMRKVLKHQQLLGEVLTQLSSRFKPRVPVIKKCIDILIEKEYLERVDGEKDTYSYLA
T3 sequence (P62877 whole entry partner, the tested form may be a part): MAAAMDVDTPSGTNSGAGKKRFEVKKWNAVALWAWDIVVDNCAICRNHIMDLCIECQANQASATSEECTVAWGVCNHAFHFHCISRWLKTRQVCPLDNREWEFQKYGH
T3 sequence (Q15843 1-76 partner limits assumed): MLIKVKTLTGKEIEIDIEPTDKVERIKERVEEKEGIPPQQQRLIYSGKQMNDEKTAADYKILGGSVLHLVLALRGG
T3 sequence (P35222 17-60 S37A limits assumed): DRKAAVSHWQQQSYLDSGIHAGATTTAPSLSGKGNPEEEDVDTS
Procedure: Four micromolar of fluorescently-labeled β-catenin peptide (residues 17–60) were ubiquitylated in a buffer containing 25 mM Tris Cl (pH 7.5), 50 mM NaCl, 5 mM MgCl2, 2 mM ATP, and 1 mM DTT at room temperature in the presence of 62.5 μM Ubiquitin, 125 nM Ube1, 1.75 μM Cdc34A, and 100 nM neddylated SCF^β-TrCP in the presence or absence of compound (as indicated). Typically, individual reaction mixes with either Ubiquitin, Ube1 and Cdc34A or β-catenin, SCF^β-TrCP and compound were preincubated and subsequently mixed to initiate β-catenin ubiquitylation. Reactions were quenched by SDS loading buffer, resolved by SDS-PAGE and imaged for fluorescence. For full length β-catenin protein ubiquitylation 400 nM β-catenin and 400 nM SCF^β-TrCP were used instead.

[4] = molecular target: T4, endogenous S37A mutant β-catenin (Homo sapiens, UniProt P35222+Q9Y297, S37A); experiment: Degradation of endogenous S37A β-catenin in TOV-112D cells; assay type: cell-based
T4 construct: host or cells: TOV-112D
T4 sequence (P35222 whole entry S37A): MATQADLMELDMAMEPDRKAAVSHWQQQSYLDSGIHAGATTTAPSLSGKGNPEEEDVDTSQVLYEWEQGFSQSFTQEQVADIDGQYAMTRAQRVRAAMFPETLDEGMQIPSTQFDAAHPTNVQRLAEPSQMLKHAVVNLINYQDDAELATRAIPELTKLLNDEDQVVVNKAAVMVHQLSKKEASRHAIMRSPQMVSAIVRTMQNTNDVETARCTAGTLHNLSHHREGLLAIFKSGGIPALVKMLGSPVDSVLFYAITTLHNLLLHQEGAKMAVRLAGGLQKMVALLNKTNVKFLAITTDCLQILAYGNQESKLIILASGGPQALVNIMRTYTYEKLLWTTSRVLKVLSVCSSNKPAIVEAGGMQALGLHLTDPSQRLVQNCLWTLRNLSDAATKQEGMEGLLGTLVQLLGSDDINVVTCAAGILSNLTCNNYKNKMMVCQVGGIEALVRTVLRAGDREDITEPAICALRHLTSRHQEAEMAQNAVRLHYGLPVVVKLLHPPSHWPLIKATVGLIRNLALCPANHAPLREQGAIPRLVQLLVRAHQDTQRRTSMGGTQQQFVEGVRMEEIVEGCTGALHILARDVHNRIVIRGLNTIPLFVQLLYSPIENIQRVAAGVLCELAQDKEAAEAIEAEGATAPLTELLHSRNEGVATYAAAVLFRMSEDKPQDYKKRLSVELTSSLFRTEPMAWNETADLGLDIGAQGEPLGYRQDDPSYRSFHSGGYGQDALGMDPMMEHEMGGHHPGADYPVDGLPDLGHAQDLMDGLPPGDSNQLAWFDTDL
T4 sequence (Q9Y297 whole entry): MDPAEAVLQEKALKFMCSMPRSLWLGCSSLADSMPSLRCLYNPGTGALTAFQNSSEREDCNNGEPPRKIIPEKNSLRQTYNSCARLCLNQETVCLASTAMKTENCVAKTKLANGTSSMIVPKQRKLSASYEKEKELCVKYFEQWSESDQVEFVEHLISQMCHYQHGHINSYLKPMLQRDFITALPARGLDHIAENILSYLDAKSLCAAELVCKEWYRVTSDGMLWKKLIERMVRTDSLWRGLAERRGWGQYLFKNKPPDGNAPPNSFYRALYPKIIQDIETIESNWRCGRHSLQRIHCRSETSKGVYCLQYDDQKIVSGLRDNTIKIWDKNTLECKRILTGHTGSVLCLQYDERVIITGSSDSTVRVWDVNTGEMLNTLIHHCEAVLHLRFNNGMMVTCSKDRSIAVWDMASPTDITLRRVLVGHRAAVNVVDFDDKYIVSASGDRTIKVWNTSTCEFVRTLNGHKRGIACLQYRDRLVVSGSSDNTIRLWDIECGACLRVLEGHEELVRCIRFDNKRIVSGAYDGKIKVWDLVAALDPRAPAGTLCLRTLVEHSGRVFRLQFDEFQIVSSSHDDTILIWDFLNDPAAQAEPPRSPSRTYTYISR
T4 sequence (P63208 whole entry partner): as the sequence (P63208 whole entry partner, the tested form may be a part) above
T4 sequence (Q13616 whole entry partner): as the sequence (Q13616 whole entry partner, the tested form may be a part) above
T4 sequence (P62877 whole entry partner): as the sequence (P62877 whole entry partner, the tested form may be a part) above
T4 sequence (Q15843 1-76 partner limits assumed): as the sequence (Q15843 1-76 partner limits assumed) above

[5] = molecular target: T5, S33E/S37A β-catenin:β-TrCP interaction (Homo sapiens, UniProt P35222+Q9Y297, S33E/S37A); experiment: Pull down from HEK293T cells treated with compound; assay type: cell-based; conditions: 50 μM, 6 h
T5 construct: a ternary complex with the full-length S33E/S37A β-catenin and β-TrCP in cells; evaluated for their ability to pull down endogenous β-TrCP; expressed in transfected cells; host or cells: HEK293T (transient, FuGeneHD); β-TrCP endogenous
T5 sequence (P35222 whole entry S33E/S37A): as the sequence (P35222 whole entry S37A) above, with S33E counted along it
T5 sequence (Q9Y297 whole entry, stated change not applied): as the sequence (Q9Y297 whole entry) above
T5 sequence (P63208 whole entry partner): as the sequence (P63208 whole entry partner, the tested form may be a part) above
Procedure: Pull down from cells treated with compound: HEK293T cells were plated in 10 cm dishes at a density of 1.2 × 10^6 cells per plate. Cells were transfected 24 h later with 2.5 µg of a WT or S33E/S37A Myc/FLAG-tagged β-catenin expression construct using the transfection reagent FuGeneHD. […] Cells were then liberated from 10 cm dishes using a cell scraper, pelleted, washed with PBS, resuspended in an equal volume of hypotonic lysis buffer (20 mM HEPES 7.5, 5 mM KCl, 1.5 mM MgCl2, 2 mM DTT, 0.01% TX-100, protease and phosphatase inhibitors, 1% DMSO), and sheered by eight passages through 21 G and 25 G needles. Samples were then supplemented up to 150 mM NaCl and clarified by centrifugation. Thirty microliters of each lysate was incubated over 10 µL of anti-c-myc magnetic beads (Pierce, Catalog #PI88842) and incubated at room temp with rotation for 30 min. Beads were pelleted, washed twice with lysis buffer, and resuspended in SDS loading buffer. Samples were analyzed by western blot.

- enhancement in PPI binding affinity ([1]; 20 μM NRX-252114): > 500 fold
- Kd ([1]; read-out: binding affinity of non-phosphorylated peptide): 0.18 µM
- EC50 [2]: 1.1 ± 0.03 µM
- enhancement of ubiquitylation of pSer33/S37A β-catenin peptide [3]: further enhances
- degradation of endogenous S37A mutant β-catenin [4]: did not induce degradation
Compound: N#Cc1cccc2c1CN(C(=O)c1c(Sc3c(Cl)cccc3Cl)cc(C(F)(F)F)[nH]c1=O)C2 [NRX-252114]
- S33E/S37A β-catenin:β-TrCP interaction in transfected cells [5]: robust S33E/S37A β-catenin:β-TrCP interaction
